Source: patent publication US20120053053A1, “PYRIMIDINE DERIVATIVES AND THEIR USE AS HERBICIDES” (SYNGENTA CROP PROTECTION, LLC, priority 2009, published 2012)

Assays:
Format in all cases: in vivo
Solanum nigrum (SOLNI) [1] = test: Post-emergence biological efficacy (percentage damage); conditions: Solanum nigrum, 312 h, dose 1,000 g/ha, evaluated after 13 days, 100=total damage, 0=no damage
Procedure, shortened: (§1)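 Post-emergence glasshouse test: plants sprayed 8 days after sowing (24/16 °C day/night, 14 h light, 65% humidity) at 250 or 1000 g/ha, formulated in acetone/water 50:50 with 0.5% Tween 20. Damage scored visually 13 days after treatment on a 0–100 scale (100 = total damage).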

[2] = system: Amaranthus retoflexus (AMARE); test: as above; conditions: Amaranthus retroflexus, 312 h, dose 1,000 g/ha, evaluated after 13 days, 100=total damage, 0=no damage
Procedure, shortened: as §1

[3] = system: Echinochloa crus-galli (ECHCG); test: as above; conditions: Echinochloa crus-galli, 312 h, dose 1,000 g/ha, evaluated after 13 days, 100=total damage, 0=no damage
Procedure, shortened: as §1

[4] = system: Ipomea hederaceae (IPOHE); test: as above; conditions: Ipomoea hederacea, 312 h, dose 1,000 g/ha, evaluated after 13 days, 100=total damage, 0=no damage
Procedure, shortened: as §1

[5] = system: Alopecurus myosuroides (ALOMY); test: as above; conditions: Alopecurus myosuroides, 312 h, dose 1,000 g/ha, evaluated after 13 days, 100=total damage, 0=no damage
Procedure, shortened: as §1

Setaria faberi (SETFA) [6] = test: as above; conditions: Setaria faberi, 312 h, dose 1,000 g/ha, evaluated after 13 days, 100=total damage, 0=no damage
Procedure, shortened: as §1

Solanum nigrum (SOLNI) [7] = test: Pre-emergence biological efficacy (percentage damage); conditions: Solanum nigrum, 312 h, dose 1,000 g/ha, evaluated after 13 days, 100=total damage, 0=no damage
Procedure, shortened: (§2)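 Seeds were sown in standard soil in pots and, one day later, sprayed with test compound at 250 or 1000 g/ha in acetone/water (50:50) with 0.5% Tween 20. Plants grew in a glasshouse at 24/16 °C day/night, 14 h light, 65% humidity; damage was scored after 13 days (0 = none, 100 = total).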

[8] = system: Amaranthus retoflexus (AMARE); test: as above; conditions: Amaranthus retroflexus, 312 h, dose 1,000 g/ha, evaluated after 13 days, 100=total damage, 0=no damage
Procedure, shortened: as §2

[9] = system: Echinochloa crus-galli (ECHCG); test: as above; conditions: Echinochloa crus-galli, 312 h, dose 1,000 g/ha, evaluated after 13 days, 100=total damage, 0=no damage
Procedure, shortened: as §2

[10] = system: Ipomea hederaceae (IPOHE); test: as above; conditions: Ipomoea hederacea, 312 h, dose 1,000 g/ha, evaluated after 13 days, 100=total damage, 0=no damage
Procedure, shortened: as §2

[11] = system: Alopecurus myosuroides (ALOMY); test: as above; conditions: Alopecurus myosuroides, 312 h, dose 1,000 g/ha, evaluated after 13 days, 100=total damage, 0=no damage
Procedure, shortened: as §2

Setaria faberi (SETFA) [12] = test: as above; conditions: Setaria faberi, 312 h, dose 1,000 g/ha, evaluated after 13 days, 100=total damage, 0=no damage
Procedure, shortened: as §2

| Compound | pest or weed control at 1000 g/ha (Solanum nigrum (SOLNI) [1]) | pest or weed control at 1000 g/ha [2] | pest or weed control at 1000 g/ha [3] | pest or weed control at 1000 g/ha [4] | pest or weed control at 1000 g/ha [5] | pest or weed control at 1000 g/ha (Setaria faberi (SETFA) [6]) | pest or weed control at 1000 g/ha (Solanum nigrum (SOLNI) [7]) | pest or weed control at 1000 g/ha [8] | pest or weed control at 1000 g/ha [9] | pest or weed control at 1000 g/ha [10] | pest or weed control at 1000 g/ha [11] | pest or weed control at 1000 g/ha (Setaria faberi (SETFA) [12]) |
| --- | --- | --- | --- | --- | --- | --- | --- | --- | --- | --- | --- | --- |
| COC(=O)c1nc(-c2ccc(Cl)c(OC)c2F)nc(N)c1C(C)=O [Compound 27-53, 4-Amino-2-(4-chloro-2-fluoro-3-methoxy-phenyl)-6-methoxycarbonyl-5-methylcarbonyl-pyrimidine] | 90% | 100% | 30% | 60% | 30% | 40% | 100% | 90% | 20% | 100% | 20% | 10% |
| C=Cc1c(N)nc(-c2ccc(Cl)c(OC)c2F)nc1C(=O)OC [Compound 27-61, 4-Amino-2-(4-chloro-2-fluoro-3-methoxyphenyl)-5-ethenyl-6-methoxycarbonyl-pyrimidine] | 80% | 100% | 90% | 80% | 90% | 100% | 100% | 100% | 90% | 90% | 90% | 90% |
| C=C(C)c1c(N)nc(-c2ccc(Cl)c(OC)c2F)nc1C(=O)OC [Compound 27-63, 4-Amino-2-(4-chloro-2-fluoro-3-methoxyphenyl)-6-methoxycarbonyl-5-(prop-1-en-2-yl)-pyrimidine] | 90% | 100% | 70% | 90% | 60% | 90% | 100% | 100% | 80% | 100% | 50% | 50% |
| C=C(OCC)c1c(N)nc(-c2ccc(Cl)c(OC)c2F)nc1C(=O)OC [Compound 27-67] | 80% | 40% | 10% | 60% | 0% | 10% | 100% | 30% | 20% | 40% | 20% | 10% |
| COC(=O)c1nc(-c2ccc(Cl)c(OC)c2F)nc(N)c1C=C(C)C [Compound 27-69, 4-Amino-2-(4-chloro-2-fluoro-3-methoxyphenyl)-6-methoxycarbonyl-5-(2-methylprop-1-enyl)-pyrimidine] | 80% | 90% | 10% | 40% | 40% | 40% | 100% | 100% | 30% | 30% | 40% | 60% |
| C=Cc1c(N)nc(-c2cc(F)c(Cl)c(F)c2)nc1C(=O)OC [Compound 30-61, 4-Amino-2-(4-chloro-3,5-difluorophenyl)-5-ethenyl-6-methoxycarbonyl-pyrimidine] | 80% | 10% | 0% | 10% | 0% | 0% | 20% | 0% | 0% | 0% | 0% | 0% |
| CCc1c(N)nc(-c2ccc(C(F)(F)F)cc2)nc1C(=O)OC [Compound 31-42, 4-amino-5-ethyl-6-methoxycarbonyl-2-(4-trifluoro-methylphenyl)-pyrimidine] | 10% | 0% | 0% | 0% | 0% | 0% | 0% | 0% | 0% | 0% | 0% | 0% |
| COC(=O)c1nc(-c2ccc(C(F)(F)F)cc2)nc(N)c1C(C)=O [Compound 31-53, 4-amino-6-methoxycarbonyl-5-methylcarbonyl-2-(4-trifluoromethylphenyl)-pyrimidine] | 100% | 100% | 100% | 90% | 90% | 100% | 100% | 100% | 90% | 90% | 80% | 90% |
| C=Cc1c(N)nc(-c2ccc(C(F)(F)F)cc2)nc1C(=O)OC [Compound 31-61, 4-Amino-5-ethenyl-6-methoxycarbonyl-2-(4-trifluoromethyl-phenyl)-pyrimidine] | 70% | 70% | 0% | 10% | 20% | 0% | 0% | 10% | 0% | 0% | 0% | 0% |
| C/C=C/c1c(N)nc(-c2ccc(C(F)(F)F)cc2)nc1C(=O)OC [Compound 31-62, 4-amino-6-methoxycarbonyl-5-prop-1-enyl-2-(4-tri-fluoromethylphenyl)-pyrimidine] | 50% | 30% | 0% | 50% | 0% | 10% | 0% | 20% | 0% | 0% | 0% | 0% |
| C=CCc1c(N)nc(-c2ccc(C(F)(F)F)cc2)nc1C(=O)OC [Compound 31-63, 4-Amino-6-methoxycarbonyl-5-(prop-1-en-3-yl)-2-(4-trifluoromethyl-phenyl)-pyrimidine] | 50% | 40% | 0% | 40% | 0% | 0% | 0% | 0% | 0% | 0% | 0% | 0% |
